Reference: patent US8637684B2, “Tautomycetin and tautomycetin analog biosynthesis” (Wisconsin Alumni Research Foundation, priority 2010, dated 2014)

How the values were obtained:
Cdc14A = target: T1, Cdc14A (Homo sapiens, UniProt Q9UNH5); assay: PTP activity assay with pNPP as substrate: Cdc14A; format: biochemical; details: pNPP as substrate at Km, pH 7.0, 25° C., I = 0.15 M
T1 sequence (Q9UNH5 1-594): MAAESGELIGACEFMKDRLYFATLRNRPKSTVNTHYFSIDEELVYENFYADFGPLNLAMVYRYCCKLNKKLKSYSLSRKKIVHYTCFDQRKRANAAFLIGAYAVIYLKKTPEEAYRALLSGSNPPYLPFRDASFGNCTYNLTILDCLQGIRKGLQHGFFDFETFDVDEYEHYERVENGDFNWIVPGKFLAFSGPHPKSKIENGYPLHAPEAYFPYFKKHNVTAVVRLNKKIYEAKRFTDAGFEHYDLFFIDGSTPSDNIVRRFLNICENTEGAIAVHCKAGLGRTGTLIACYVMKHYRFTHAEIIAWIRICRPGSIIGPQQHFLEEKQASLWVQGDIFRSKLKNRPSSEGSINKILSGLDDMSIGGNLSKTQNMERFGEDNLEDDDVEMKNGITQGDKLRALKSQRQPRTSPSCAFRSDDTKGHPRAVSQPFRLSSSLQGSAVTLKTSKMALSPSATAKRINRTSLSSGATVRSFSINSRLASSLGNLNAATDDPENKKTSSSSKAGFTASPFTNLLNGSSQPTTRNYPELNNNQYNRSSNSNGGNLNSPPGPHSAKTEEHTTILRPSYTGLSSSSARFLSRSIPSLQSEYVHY
Description: The PTP activity was assayed using pNPP as a substrate at 25° C. in 50 mM 3,3-dimethylglutarate buffer, pH 7.0, containing 1 mM EDTA with an ionic strength of 0.15 M adjusted by NaCl. TTM, TTN and the engineered analogs were analyzed for inhibition of a panel of PTPs at 10 μM compound concentration. For each enzyme screened, test compounds were diluted to 20 μM in 100 μL and combined with 50 μL pNPP at a concentration of 4×Km. The reaction was initiated by the addition of 50 μL of 4× concentrated enzyme and pNPP was allowed to convert to the product p-nitrophenol. The reaction was quenched by the addition of 50 μL of 5N NaOH. Nonenzymatic hydrolysis of pNPP was corrected by measuring the control without the addition of enzyme. Production of p-nitrophenol was monitored by a Spectra MAX385 microplate spectrophotometer (Molecular Devices) at 405 nm using a molar extinction coefficient of 18,000 M^−1 cm^−1. IC50 values were calculated by fitting the absorbance at 405 nm versus inhibitor concentration to the following equation: AI/A0=IC50/(IC50+[I]) where AI is the absorbance at 405 nm of the sample in the presence of inhibitor; Ao is the absorbance at 405 nm in the absence of inhibitor; and [I] is the concentration of the inhibitor.

[1] = tested on: GM-CSF induced ERK1/2 activation in macrophage progenitors; assay: GM-CSF induced ERK1/2 activation in macrophage progenitors, immunoblot; format: cell-based; details: 2 μM TTN for 2 hours, GM-CSF 50 ng/mL
Description: Bone marrow low density mononuclear cells (LDMNCs) were transduced with MIEG3 (empty vector), MIEG3-WT SHP2, or MIEG3-SHP2/E76K, sorted based on enhanced green fluorescent protein (EGFP) expression, and cultured for 5 days in M-CSF 100 ng/mL to generate macrophage progenitors, as previously described (Chan et al., 2005). Cells were serum- and growth factor-deprived for 16 hours, treated with 2 μM TTN for 2 hours, and stimulated with GM-CSF 50 ng/mL followed by preparation of protein extracts. Extracts were evaluated by immunoblot using α-phospho-ERK1/2 for activated ERK levels and α-ERK1/2 for total ERK levels (Cell Signaling Technology, Beverly, Mass.).
For biochemical studies, macrophage progenitor cells expressing empty vector (MIEG3), wild-type SHP2, or SHP2/E76K were serum- and growth factor-deprived for […]. Cells were pre-treated with DMSO or 2 μM TTN for 2 hours, and then cultures either remained unstimulated or were stimulated with GM-CSF at 50 ng/mL for 60 minutes. […] They next examined the effect of TTN on GM-CSF-stimulated hyperproliferation of SHP2/E76K-expressing hematopoietic progenitors. […] To provide further evidence that SHP2 is a molecular target of TTN, the inventors determined the X-ray crystal structure of SHP2 in complex with TTN D-1, as crystallization attempts for the SHP2-TTN complex were unsuccessful. […]

tautomycetin [TTN]
IC50 (Cdc14A): > 50 µM
effect on ERK1/2 hyperactivation in SHP2/E76K-expressing cells [1]: effectively inhibited
effect on GM-CSF induced ERK1/2 activation in macrophage progenitors [1]: abrogated
